Experimental data: patent US11130741B2 (Bioimics AB, priority 2016, dated 2021)
Values after ≈ are worked out from the molar mass of the structure shown. Like-named read-outs stand apart in the source and are kept apart here.

Assays:
[1] = tested on: S. pneumoniae ATCC 49619; test: MIC, S. pneumoniae ATCC 49619; type: cell-based; settings: Streptococcus pneumoniae, ATCC49619
[2] = tested on: E. coli JW5503; test: MIC, E. coli JW5503; type: cell-based; settings: Escherichia coli, JW5503, read-out: MIC E. coli JW5503
[3] = tested on: Staphylococcus aureus subsp. aureus (ATCC29213); test: MIC, broth microdilution (CLSI), Staphylococcus aureus subsp. aureus ATCC29213; type: cell-based
[4] = tested on: H. influenzae ATCC 49247; test: MIC, H. influenzae ATCC 49247; type: cell-based; settings: Haemophilus influenzae, ATCC49247
[5] = tested on: S. aureus MRSA ATCC 33591; test: MIC, S. aureus MRSA ATCC 33591; type: cell-based
[6] = tested on: A. baumannii ATCC 17978; test: MIC, A. baumannii ATCC 17978; type: cell-based; settings: Acinetobacter baumannii, ATCC17978
[7] = tested on: P. aeruginosa NTUH-974 (MDR); test: MIC, P. aeruginosa NTUH-974 (MDR); type: cell-based
[8] = tested on: Escherichia coli (ATCC25922); test: MIC, broth microdilution (CLSI), Escherichia coli ATCC25922
[9] = tested on: Staphylococcus aureus (ATCC25923); test: MIC, broth microdilution (CLSI), Staphylococcus aureus ATCC25923
[10] = tested on: Enterococcus faecalis (ATCC29212); test: MIC, broth microdilution (CLSI), Enterococcus faecalis ATCC29212; type: cell-based; settings: read-out: MIC E. faecalis ATCC 29212
[11] = tested on: E. faecium ATCC 700221; test: MIC, E. faecium ATCC 700221; type: cell-based
[12] = tested on: S. aureus ATCC 29213; test: MIC, S. aureus ATCC 29213 + 50% HS; type: cell-based; settings: Staphylococcus aureus, ATCC29213
[13] = tested on: E. coli RNase P RNA, M1 RNA; test: Inhibition of bacterial RNase P activity, IC50 determination (cleavage of pATSerUG by M1 RNA); type: biochemical; settings: NI = No inhibition
[14] = tested on: Pseudomonas aeruginosa (ATCC27853); test: microbe, parasite or virus in culture; type: cell-based; settings: read-out: MIC P. aeruginosa ATCC 27853
[15] = tested on: N. gonorrhoeae 612501; test: MIC, N. gonorrhoeae 612501; type: cell-based; settings: Neisseria gonorrhoeae
[16] = tested on: K. pneumoniae ATCC 43816; test: MIC, K. pneumoniae ATCC 43816; type: cell-based; settings: Klebsiella pneumoniae, ATCC43816
[17] = ATCC29213, Table 15, read-out: S. aureus ("wound") (MIC)
[18] = ATCC29213, Table 16, read-out: MIC S. aureus ATCC 29213
[19] = Staphylococcus aureus; read-out: MIC S. aureus MRSA ATCC 33591
[20] = Pseudomonas aeruginosa, read-out: MIC P. aeruginosa NTUH-974 (MDR)
[21] = ATCC25922, read-out: E. coli MIC, Table 15, NI = No inhibition
[22] = ATCC25922, read-out: MIC E. coli ATCC 25922
[23] = ATCC25923, read-out: S. aureus ("Clinical") MIC
[24] = Enterococcus faecium, ATCC700221; read-out: MIC E. faecium ATCC 700221
[25] = ATCC25922, read-out: MIC E. coli ATCC 25922, Table 16
[26] = Pseudomonas aeruginosa; read-out: MIC P. aeruginosa NTUH-974 (MDR)

Compound	MIC [1]	MIC [2]	MIC [3, 17]	MIC [3, 18]	MIC [4]	MIC [5, 19]	MIC [6]	MIC [7, 20]	MIC [8, 21]	MIC [9, 23]	MIC [10]	MIC [11, 24]	MIC [12]	IC50 [13]	MIC [14]	MIC [15]	MIC [16]	MIC [8, 25]	other results
O=C(/C=C/c1ccc(F)cc1)Nc1cc(C(F)(F)F)cc2c1Nc1ccccc1S2 [compound 92, E-3-(4-fluorophenyl)-N-(3-(trifluoromethyl)-10H-phenothiazin-1-yl)acrylamide]	8 µg/mL (≈ 18.6 µM)	> 128 µg/mL	1 µg/mL (≈ 2.32 µM)	0.5 µg/mL (≈ 1.16 µM)	> 128 µg/mL	2 µg/mL (≈ 4.65 µM)	> 128 µg/mL	> 128 µg/mL	> 100 µg/mL	1 µg/mL (≈ 2.32 µM)	2 µg/mL (≈ 4.65 µM)	0.5 µg/mL (≈ 1.16 µM)	128 µg/mL	> 100 µM	> 128 µg/mL	0.25 µg/mL (≈ 0.581 µM)	> 128 µg/mL	–	MIC [8, 22]: > 128 µg/mL
CN(C)CCCN1c2ccccc2Sc2cc(-c3cc4ccccc4[nH]3)ccc21 [compound 111, 3-(3-(1H-Indol-2-yl)-10H-phenothiazin-10-yl)-N,N-dimethylpropan-1-amine]	8 µg/mL (≈ 20 µM)	4 µg/mL (≈ 10 µM)	3 µg/mL (≈ 7.51 µM)	2 µg/mL (≈ 5.01 µM)	16 µg/mL (≈ 40 µM)	4 µg/mL (≈ 10 µM)	64 µg/mL (≈ 160 µM)	> 128 µg/mL	> 100 µg/mL	3 µg/mL (≈ 7.51 µM)	4 µg/mL (≈ 10 µM)	2 µg/mL (≈ 5.01 µM)	128 µg/mL	~20 µM	> 128 µg/mL	2 µg/mL (≈ 5.01 µM)	> 128 µg/mL	64 µg/mL (≈ 160 µM)	–
CN(C)CCCN1c2ccccc2Sc2cc(-c3cc4cc(C#N)ccc4[nH]3)ccc21 [compound 123, 2-(10-(3-(dimethylamino)propyl)-10H-phenothiazin-3-yl)-1H-indole-5-carbonitrile]	8 µg/mL (≈ 18.8 µM)	4 µg/mL (≈ 9.42 µM)	2 µg/mL (≈ 4.71 µM)	2 µg/mL (≈ 4.71 µM)	16 µg/mL (≈ 37.7 µM)	8 µg/mL (≈ 18.8 µM)	64 µg/mL (≈ 151 µM)	> 128 µg/mL	> 100 µg/mL	2 µg/mL (≈ 4.71 µM)	2 µg/mL (≈ 4.71 µM)	2 µg/mL (≈ 4.71 µM)	64 µg/mL	> 100 µM	> 128 µg/mL	1 µg/mL (≈ 2.36 µM)	> 128 µg/mL	–	MIC [8, 22]: > 128 µg/mL
NC1CCCC(CNc2cc(C(F)(F)F)cc3c2Nc2ccccc2S3)C1 (centres unmarked) [compound 133, N-((3-Aminocyclohexyl)methyl)-3-(trifluoromethyl)-10H-phenothiazin-1-amine]	32 µg/mL (≈ 81.3 µM)	8 µg/mL (≈ 20.3 µM)	81 µg/mL (≈ 206 µM)	4 µg/mL (≈ 10.2 µM)	16 µg/mL (≈ 40.7 µM)	4 µg/mL (≈ 10.2 µM)	16 µg/mL (≈ 40.7 µM)	128 µg/mL (≈ 325 µM)	13 µg/mL (≈ 33 µM)	3 µg/mL (≈ 7.62 µM)	8 µg/mL (≈ 20.3 µM)	4 µg/mL (≈ 10.2 µM)	128 µg/mL	19 µM	128 µg/mL (≈ 325 µM)	2 µg/mL (≈ 5.08 µM)	32 µg/mL (≈ 81.3 µM)	32 µg/mL (≈ 81.3 µM)	–
NCCN1CCC(Nc2cc(C(F)(F)F)cc3c2Nc2ccccc2S3)CC1 [compound 140, N-(1-(2-Aminoethyl)piperidin-4-yl)-3-(trifluoromethyl)-10H-phenothiazin-1-amine]	32 µg/mL (≈ 78.3 µM)	8 µg/mL (≈ 19.6 µM)	8 µg/mL (≈ 19.6 µM)	4 µg/mL (≈ 9.79 µM)	8 µg/mL (≈ 19.6 µM)	4 µg/mL (≈ 9.79 µM)	8 µg/mL (≈ 19.6 µM)	–	7 µg/mL (≈ 17.1 µM)	3 µg/mL (≈ 7.34 µM)	4 µg/mL (≈ 9.79 µM)	4 µg/mL (≈ 9.79 µM)	128 µg/mL	8 µM	64 µg/mL (≈ 157 µM)	2 µg/mL (≈ 4.9 µM)	8 µg/mL (≈ 19.6 µM)	32 µg/mL (≈ 78.3 µM)	MIC [7, 26]: 32 µg/mL (≈ 78.3 µM)
NCCCN1c2ccccc2Sc2cc(-c3cc4ccccc4[nH]3)ccc21 [compound 150, 3-(3-(1H-Indol-2-yl)-10H-phenothiazin-10-yl)propan-1-amine]	8 µg/mL (≈ 21.5 µM)	4 µg/mL (≈ 10.8 µM)	–	2 µg/mL (≈ 5.38 µM)	8 µg/mL (≈ 21.5 µM)	2 µg/mL (≈ 5.38 µM)	16 µg/mL (≈ 43.1 µM)	> 128 µg/mL	12 µg/mL (≈ 32.3 µM)	1 µg/mL (≈ 2.69 µM)	2 µg/mL (≈ 5.38 µM)	2 µg/mL (≈ 5.38 µM)	64 µg/mL	14 µM	> 128 µg/mL	2 µg/mL (≈ 5.38 µM)	16 µg/mL (≈ 43.1 µM)	16 µg/mL (≈ 43.1 µM)	–
CNCCCN1c2ccccc2Sc2cc(-c3cc4ccccc4[nH]3)ccc21 [compound 186, 3-(3-(1H-indol-2-yl)-10H-phenothiazin-10-yl)-N-methylpropan-1-amine]	32 µg/mL (≈ 83 µM)	4 µg/mL (≈ 10.4 µM)	–	4 µg/mL (≈ 10.4 µM)	16 µg/mL (≈ 41.5 µM)	8 µg/mL (≈ 20.8 µM)	16 µg/mL (≈ 41.5 µM)	> 128 µg/mL	99 µg/mL (≈ 257 µM)	2 µg/mL (≈ 5.19 µM)	4 µg/mL (≈ 10.4 µM)	4 µg/mL (≈ 10.4 µM)	64 µg/mL	30 µM	> 128 µg/mL	4 µg/mL (≈ 10.4 µM)	128 µg/mL (≈ 332 µM)	16 µg/mL (≈ 41.5 µM)	–
CC(C)NCCCN1c2ccccc2Sc2cc(-c3cc4ccccc4[nH]3)ccc21 [compound 197, 3-(3-(1H-indol-2-yl)-10H-phenothiazin-10-yl)-N-isopropylpropan-1-amine]	4 µg/mL (≈ 9.67 µM)	4 µg/mL (≈ 9.67 µM)	4 µg/mL (≈ 9.67 µM)	2 µg/mL (≈ 4.84 µM)	16 µg/mL (≈ 38.7 µM)	16 µg/mL (≈ 38.7 µM)	64 µg/mL (≈ 155 µM)	> 128 µg/mL	–	6 µg/mL (≈ 14.5 µM)	2 µg/mL (≈ 4.84 µM)	2 µg/mL (≈ 4.84 µM)	128 µg/mL	25 µM	> 128 µg/mL	1 µg/mL (≈ 2.42 µM)	> 128 µg/mL	64 µg/mL (≈ 155 µM)	–
NC1CCCC(C(=O)Nc2cc(C(F)(F)F)cc3c2Nc2ccc(-c4cc5ccccc5[nH]4)cc2S3)C1 (centres unmarked) [compound 242, N-(7-(1H-Indol-2-yl)-3-(trifluoromethyl)-10H-phenothiazin-1-yl)-3-aminocyclohexanecarboxamide]	16 µg/mL (≈ 30.6 µM)	–	8 µg/mL (≈ 15.3 µM)	2 µg/mL (≈ 3.83 µM)	16 µg/mL (≈ 30.6 µM)	2 µg/mL (≈ 3.83 µM)	16 µg/mL (≈ 30.6 µM)	–	–	4 µg/mL (≈ 7.65 µM)	–	–	128 µg/mL	3 µM	> 128 µg/mL	2 µg/mL (≈ 3.83 µM)	–	–	MIC [7, 26]: 64 µg/mL (≈ 122 µM)
NCCCN1c2ccc(-c3cc4ccccc4[nH]3)cc2Sc2cc(C(F)(F)F)ccc21 [compound 245, 3-(3-(1H-indol-2-yl)-7-(trifluoromethyl)-10H-phenothiazin-10-yl)propan-1-amine]	16 µg/mL (≈ 36.4 µM)	8 µg/mL (≈ 18.2 µM)	1 µg/mL (≈ 2.28 µM)	2 µg/mL (≈ 4.55 µM)	4 µg/mL (≈ 9.1 µM)	2 µg/mL (≈ 4.55 µM)	16 µg/mL (≈ 36.4 µM)	–	7 µg/mL (≈ 15.9 µM)	2 µg/mL (≈ 4.55 µM)	2 µg/mL (≈ 4.55 µM)	1 µg/mL (≈ 2.28 µM)	128 µg/mL	1 µM	> 128 µg/mL	2 µg/mL (≈ 4.55 µM)	32 µg/mL (≈ 72.8 µM)	8 µg/mL (≈ 18.2 µM)	MIC [7, 26]: 64 µg/mL (≈ 146 µM)
NCCNC(=O)c1ccc2c(c1)Sc1cc(C(F)(F)F)cc(NC3CCN(CCN)CC3)c1N2 [compound 255, N-(2-aminoethyl)-9-((1-(2-aminoethyl)piperidin-4-yl)amino)-7-(trifluoromethyl)-10H-phenothiazine-3-carboxamide trifluroroacetic acid]	64 µg/mL (≈ 129 µM)	16 µg/mL (≈ 32.4 µM)	8 µg/mL (≈ 16.2 µM)	8 µg/mL (≈ 16.2 µM)	64 µg/mL (≈ 129 µM)	–	128 µg/mL (≈ 259 µM)	64 µg/mL (≈ 129 µM)	–	–	16 µg/mL (≈ 32.4 µM)	–	64 µg/mL	–	128 µg/mL (≈ 259 µM)	16 µg/mL (≈ 32.4 µM)	128 µg/mL (≈ 259 µM)	–	MIC ([5]; Staphylococcus aureus, read-out: MIC S. aureus MRSA ATCC 33591): 16 µg/mL (≈ 32.4 µM); MIC ([8]; ATCC25922, read-out: E. coli MIC): 39 µg/mL (≈ 78.9 µM); MIC [8, 22]: 64 µg/mL (≈ 129 µM); MIC ([9]; ATCC25923, read-out: S. aureus ("Clinical") MIC, Table 15): 2 µg/mL (≈ 4.04 µM); MIC ([11]; Enterococcus faecium, ATCC700221, read-out: MIC E. faecium ATCC 700221): 32 µg/mL (≈ 64.7 µM)
